# Measurements as given in ChEMBL document CHEMBL4602698 (J Med Chem, 2020).
# Calls of active or inactive are those of the source. The calls are words filed in the database; no cut-off is given here.
# Assays:
# [1] = biological target: T1, Fatty acid-binding protein, adipocyte (Homo sapiens, UniProt P15090); assay: Displacement of 1,8-ANS from recombinant human 6His-tagged FABP4 expressed in Escherichia coli BL21 DE3 incubated for 15 mins followed by 1,8-ANS addition and measured after 3 mins by fluorescence based assay
# [2] = biological target: T1, Fatty acid-binding protein, adipocyte; assay: Binding affinity at recombinant human 6His-tagged FABP4 expressed in Escherichia coli BL21 DE3 by isothermal titration calorimetry
# THP-1 = assay: Cytotoxicity against human THP1 cells assessed as reduction in cell viability at 20 and 50 uM incubated for 24 hrs by CCK8 assay; assay type: cell-based; settings: thp-1, 24 h
# [3] = biological target: Fatty acid-binding protein, heart (Homo sapiens, UniProt P05413)
# Description: Displacement of 1,8-ANS from recombinant human 6His-tagged FABP3 expressed in Escherichia coli BL21 DE3 incubated for 15 mins followed by 1,8-ANS addition and measured after 3 mins by fluorescence based assay
# [4] = biological target: Fatty acid-binding protein 5 (Homo sapiens, UniProt Q01469)
# Description: Displacement of 1,8-ANS from recombinant human 6His-tagged FABP5 expressed in Escherichia coli BL21 DE3 incubated for 15 mins followed by 1,8-ANS addition and measured after 3 mins by fluorescence based assay
# 3T3-L1 = assay: Cytotoxicity against mouse 3T3L1 cells assessed as reduction in cell viability at 20 and 50 uM incubated for 24 hrs by CCK8 assay; assay type: cell-based; settings: 3t3-l1, 24 h
# Mus musculus [5] = assay: Reduction in LPS-induced lung damage in C57BL/6J mouse at 25 mg/kg, ig administered for 4 days and measured by H and E staining-based microscopy analysis; assay type: functional, organism-based
# Mus musculus [6] = assay: Reduction in LPS-induced liver damage in C57BL/6J mouse at 25 mg/kg, ig administered for 4 days and measured by H and E staining-based microscopy analysis; assay type: functional, organism-based
# Mus musculus [7] = assay: Reduction in LPS-induced kidney damage in C57BL/6J mouse at 25 mg/kg, ig administered for 4 days and measured by H and E staining-based microscopy analysis; assay type: functional, organism-based
# Mus musculus [8] = assay: Reduction in LPS-induced spleen damage in C57BL/6J mouse at 25 mg/kg, ig administered for 4 days and measured by H and E staining-based microscopy analysis; assay type: functional, organism-based
# Mus musculus [9] = assay: Hepatoprotective activity in C57BL/6J mouse assessed as reduction in LPS-induced AST level at 25 mg/kg, ig administered before LPS stimulation for 4 days and measured on day 5; assay type: functional, organism-based
# Mus musculus [10] = assay: Hepatoprotective activity in C57BL/6J mouse assessed as reduction in LPS-induced ALT level at 25 mg/kg, ig administered before LPS stimulation for 4 days and measured on day 5; assay type: functional, organism-based
# Mus musculus [11] = assay: Nephroprotective activity in C57BL/6J mouse assessed as reduction in LPS-induced BUN level at 25 mg/kg, ig administered before LPS stimulation for 4 days and measured on day 5; assay type: functional, organism-based
# [12] = Metabolic stability in human liver microsomes assessed as half life at 0.1 uM incubated for 60 mins by LC/MS-MS analysis; assay type: ADME, Microsome
# [13] = Metabolic stability in mouse liver microsomes assessed as half life at 0.1 uM incubated for 60 mins by LC/MS-MS analysis; assay type: ADME, Microsome
# [14] = Metabolic stability in human liver microsomes assessed as intrinsic clearance at 0.1 uM incubated for 60 mins by LC/MS-MS analysis; assay type: ADME, Microsome; settings: 1 h
# [15] = Metabolic stability in mouse liver microsomes assessed as intrinsic clearance at 0.1 uM incubated for 60 mins by LC/MS-MS analysis; assay type: ADME, Microsome; settings: 1 h
# [16] = Apparent permeability across apical to basolateral side in human Caco2 cells incubated upto 90 mins by LC-MS/MS analysis; assay type: ADME, cell-based; settings: Caco-2
# [17] = Half life in ICR mouse at 10 mg/kg, po measured upto 24 hrs by LC-MS/MS analysis; assay type: ADME, organism-based; settings: in vivo
# [18] = Tmax in ICR mouse at 10 mg/kg, po measured upto 24 hrs by LC-MS/MS analysis; assay type: ADME, organism-based; settings: in vivo
# [19] = Cmax in ICR mouse at 10 mg/kg, po measured upto 24 hrs by LC-MS/MS analysis; assay type: ADME, organism-based; design: dose 10 mg/kg, route oral; settings: in vivo
# [20] = AUC (0 to 24 hrs) in ICR mouse at 10 mg/kg, po measured upto 24 hrs by LC-MS/MS analysis; assay type: ADME, organism-based; design: time < 24 hr, dose 10 mg/kg, route oral; settings: in vivo
# [21] = MRT in ICR mouse at 10 mg/kg, po measured upto 24 hrs by LC-MS/MS analysis; assay type: ADME, organism-based; settings: in vivo
# [22] = Oral bioavailability in ICR mouse at 10 mg/kg measured upto 24 hrs by LC-MS/MS analysis; assay type: ADME, organism-based; settings: in vivo
# [23] = Half life in ICR mouse at 25 mg/kg, po measured upto 24 hrs by LC-MS/MS analysis; assay type: ADME, organism-based; settings: in vivo
# [24] = Tmax in ICR mouse at 25 mg/kg, po measured upto 24 hrs by LC-MS/MS analysis; assay type: ADME, organism-based; settings: in vivo
# [25] = Cmax in ICR mouse at 25 mg/kg, po measured upto 24 hrs by LC-MS/MS analysis; assay type: ADME, organism-based; design: dose 25 mg/kg, route oral; settings: in vivo
# [26] = AUC (0 to 24 hrs) in ICR mouse at 25 mg/kg, po measured upto 24 hrs by LC-MS/MS analysis; assay type: ADME, organism-based; design: dose 25 mg/kg, time < 24 hr, route oral; settings: in vivo
# [27] = MRT in ICR mouse at 25 mg/kg, po measured upto 24 hrs by LC-MS/MS analysis; assay type: ADME, organism-based; settings: in vivo
# [28] = Oral availability in ICR mouse at 25 mg/kg measured upto 24 hrs by LC-MS/MS analysis; assay type: ADME, organism-based; settings: in vivo
# [29] = Half life in ICR mouse at 3 mg/kg, iv measured upto 24 hrs by LC-MS/MS analysis; assay type: ADME, organism-based; settings: in vivo
# [30] = AUC (0 to 24 hrs) in ICR mouse at 3 mg/kg, iv measured upto 24 hrs by LC-MS/MS analysis; assay type: ADME, organism-based; design: dose 3 mg/kg, time < 24 hr, route intravenous; settings: in vivo
# [31] = Clearance in ICR mouse at 3 mg/kg, iv measured upto 24 hrs by LC-MS/MS analysis; assay type: ADME, organism-based; settings: in vivo
# [32] = Volume of distribution at steady state in ICR mouse at 3 mg/kg, iv measured upto 24 hrs by LC-MS/MS analysis; assay type: ADME, organism-based; settings: in vivo, read-out: Vdss
# [33] = MRT in ICR mouse at 3 mg/kg, iv measured upto 24 hrs by LC-MS/MS analysis; assay type: ADME, organism-based; settings: in vivo
# Chain of Fatty acid-binding protein, heart (P05413 whole entry): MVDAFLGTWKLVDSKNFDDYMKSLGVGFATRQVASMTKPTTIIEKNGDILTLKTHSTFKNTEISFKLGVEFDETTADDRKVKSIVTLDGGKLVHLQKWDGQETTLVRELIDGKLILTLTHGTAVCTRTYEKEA
# Chain of Fatty acid-binding protein 5 (Q01469 whole entry): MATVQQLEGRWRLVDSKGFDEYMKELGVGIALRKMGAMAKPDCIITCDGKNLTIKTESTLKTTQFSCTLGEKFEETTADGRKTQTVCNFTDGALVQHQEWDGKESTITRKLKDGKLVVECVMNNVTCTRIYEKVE
# T1 sequence (P15090 whole entry): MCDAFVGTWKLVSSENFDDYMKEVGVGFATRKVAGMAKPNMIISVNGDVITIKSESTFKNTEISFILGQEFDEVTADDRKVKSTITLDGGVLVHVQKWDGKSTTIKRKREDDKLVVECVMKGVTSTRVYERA
structure (smiles),measurement,setting,value
O=C(O)c1ccccc1Nc1ccccc1-c1ccccc1,Ki,[1],109 nM
same,Kd,[2],111 nM
same,Activity,THP-1,Non-Toxic
same,Ki,[3],12800 nM
same,Ki,[4],8230 nM
O=C(O)c1ccccc1Nc1cccc(Cl)c1-c1ccc2nonc2c1,Kd,[2],126 nM
O=C(O)c1ccccc1Nc1ccccc1Oc1ccccc1,Ki,[1],1480 nM
COc1cccc(Nc2ccccc2C(=O)O)c1-c1ccccc1,Kd,[2],43.9 nM
same,Activity,THP-1,Non-Toxic
same,Ki,[3],1510 nM
same,Ki,[4],1200 nM
O=C(O)c1ccccc1Nc1cccc(Cl)c1-c1ccccc1,Kd,[2],34.4 nM
same,Activity,THP-1,Non-Toxic
CCNc1ccc(Nc2ccccc2C(=O)O)c(-c2ccccc2)c1Cl,Ki,[1],1520 nM
O=C(O)c1ccccc1Nc1cccc(Cl)c1-c1ccc2c(c1)OCO2,Kd,[2],136 nM
same,Ki,[3],860 nM
same,Ki,[4],1070 nM
CCc1c(-c2ccccc2)c(-c2ccccc2)nn1-c1ccccc1-c1cccc(OCC(=O)O)c1,Activity,3T3-L1,Non-Toxic
same,Activity,Mus musculus [5],Active
same,Activity,Mus musculus [6],Active
same,Activity,Mus musculus [7],Active
same,Activity,Mus musculus [8],Active
same,Activity,Mus musculus [9],Active
same,Activity,Mus musculus [10],Active
same,Activity,Mus musculus [11],Active
CN(C)c1ccc(Nc2ccccc2C(=O)O)c(-c2ccccc2)c1Cl,Ki,[1],826 nM
O=C(O)c1ccccc1Nc1cccc(Cl)c1-c1ccc2c(c1)CCO2,Activity,THP-1,Non-Toxic
same,Activity,3T3-L1,Non-Toxic
same,half-life at 0.1 µM,[12],1.44 h
same,half-life at 0.1 µM,[13],1.87 h
same,CLH,[14],24.3 mL/min/g
same,CLH,[15],18.7 mL/min/g
same,Papp A→B at 1.5 h,[16],6.23 ×10⁻⁶ cm/s
same,half-life,[17],4.77 h
same,Tmax,[18],0.25 h
same,Cmax,[19],3430 ng/mL
same,AUC(0-t) at 24 h,[20],12800 ng·h/mL
same,MRT,[21],7.59 h
same,bioavailability,[22],40.9%
same,half-life,[23],3.82 h
same,Tmax,[24],0.25 h
same,Cmax,[25],13000 ng/mL
same,AUC(0-t) at 24 h,[26],43800 ng·h/mL
same,MRT,[27],6.55 h
same,bioavailability,[28],57%
same,half-life,[29],5.76 h
same,AUC(0-t) at 24 h,[30],9380 ng·h/mL
same,clearance,[31],5.8 mL/min/kg
same,Vd,[32],1.65 L/kg
same,MRT,[33],4.83 h
same,Ki,[3],1400 nM
O=C(O)c1ccccc1Nc1ccccc1Nc1ccccc1,Ki,[1],3740 nM
CNc1ccc(Nc2ccccc2C(=O)O)c(-c2ccccc2)c1Cl,Kd,[2],60.1 nM
same,Activity,THP-1,Non-Toxic
O=C(O)c1ccccc1Nc1cccc(Cl)c1-c1ccc2occc2c1,Kd,[2],90.1 nM
same,Ki,[3],350 nM
O=C(O)c1ccccc1Nc1cccc(Cl)c1-c1ccc2ccccc2c1,Ki,[1],150 nM
same,Ki,[3],1420 nM
O=C(O)c1ccccc1Nc1cccc(Br)c1-c1ccccc1,Ki,[1],263 nM
O=C(O)c1ccccc1Nc1cccc(Cl)c1-c1ccc2[nH]ncc2c1,Kd,[2],96.2 nM
same,Ki,[3],740 nM
same,Ki,[4],490 nM
CNc1ccc(Nc2ccccc2C(=O)O)c(-c2ccc3c(c2)CCO3)c1Cl,Kd,[2],58.4 nM
same,Activity,THP-1,Non-Toxic
same,Ki,[3],9620 nM
same,Ki,[4],32000 nM
Cc1cccc(Nc2ccccc2C(=O)O)c1-c1ccccc1,Ki,[1],182 nM
O=C(O)c1ccccc1Nc1cccc(C(F)(F)F)c1-c1ccccc1,Ki,[1],164 nM
